The test system of assay [1] is Phakopsora pachyrhizi. Briefly: Protective control of soy bean rust on soy beans (Use Example 4, greenhouse comparative test). The class given is in vivo. Particulars: soy bean seedlings, inoculated 1 day after spraying, untreated control 80. The procedure:
The spray solutions were prepared in several steps:
The stock solutions were prepared: a mixture of acetone and/or dimethylsulfoxide and the wetting agent/emulsifier Wettol, which is based on ethoxylated alkylphenoles, in a relation (volume) solvent-emulsifier of 99 to 1 was added to 25 mg of the compound to give a total of 5 ml. Water was then added to total volume of 100 ml.
This stock solution was diluted with the described solvent-emulsifier-water mixture to the given concentration.
Leaves of pot-grown soy bean seedlings were sprayed to run-off with an aqueous suspension, containing the concentration of active ingredient or their mixture as described below. The plants were allowed to air-dry. The trial plants were cultivated for 1 day in a greenhouse chamber at 23-27° C. and a relative humidity between 60 and 80%. Then the plants were inoculated with spores of Phakopsora pachyrhizi. To ensure the success the artificial inoculation, the plants were transferred to a humid chamber with a relative humidity of about 95% and 20 to 24° C. for 24 h. The trial plants were cultivated for fourteen days in a greenhouse chamber at 23-27° C. and a relative humidity between 60 and 80%. The extent of fungal attack on the leaves was visually assessed as % diseased leaf area.

For assay [2], the system named is Puccinia recondita (Puccrt K4). Briefly: Curative control of brown rust on wheat (Use Example 5, greenhouse comparative test). The class given is in vivo. Conditions: wheat seedlings, sprayed after inoculation, untreated control 90. The procedure:
The spray solutions were prepared in several steps: The stock solutions were prepared: a mixture of acetone and/or dimethylsulfoxide and the wetting agent/emulsifier Wettol, which is based on ethoxylated alkylphenoles, in a relation (volume) solvent-emulsifier of 99 to 1 was added to 25 mg of the compound to give a total of 5 ml. Water was then added to total volume of 100 ml. This stock solution was diluted with the described solvent-emulsifier-water mixture to the given concentration. The first two developed leaves of pot-grown wheat seedling were dusted with spores of Puccinia recondita. To ensure the success the artificial inoculation, the plants were transferred to a humid chamber without light and a relative humidity of 95 to 99% and 20 to 24° C. for 24 h. The next day the plants were cultivated for 3 days in a greenhouse chamber at 20-24° C. and a relative humidity between 65 and 70%. Then the plants were sprayed to run-off with an aqueous suspension, containing the concentration of active ingredient or their mixture as described below. The plants were allowed to air-dry. Then the trial plants were cultivated for 8 days in a greenhouse chamber at 20-24° C. and a relative humidity between 65 and 70%. The extent of fungal attack on the leaves was visually assessed as % diseased leaf area.

As to `OC(Cn1cncn1)(c1ccccc1)c1ccc(Oc2ccc(Cl)cc2)cc1Cl` (stereo not drawn) [Compound I-1], the “Disease (%) at 150 ppm” value in assay [1] turned out to be 1%. Take `OC(Cc1ccccc1)(Cn1cncn1)c1ccc(Oc2ccc(Cl)cc2)cc1Cl` (stereo not drawn) [Compound I-2, 2-[2-chloro-4-(4-chloro-phenoxy)-phenyl]-1-phenyl-3-[1,2,4]triazol-1-yl-propan-2-ol]: in assay [1], the “Disease (%) at 150 ppm” value is 3%. Moreover, the “Disease (%) at 63 ppm” value in assay [2] amounted to 35%.

On to `OC(C#Cc1ccccc1)(Cn1cncn1)c1ccc(Oc2ccc(Cl)cc2)cc1Cl` (stereo not drawn) [Compound I-4], for which the “Disease (%) at 63 ppm” value in assay [2] is recorded as 20%.

For `OC(/C=C/c1ccccc1)(Cn1cncn1)c1ccc(Oc2ccc(Cl)cc2)cc1Cl` (stereo not drawn) [Compound V20, reference compound], in assay [1], the “Disease (%) at 150 ppm” value is recorded as 50%. Further, in assay [2], the “Disease (%) at 63 ppm” value was found to be 55%.

The values above are taken from US20140141974A1, “Fungicidal phenylalkyl-substituted 2-[2-chloro-4-(4-chloro-phenoxy)-phenyl]-1-[1,2,4]triazol-1-yl-ethanol compounds” (BASF SE, priority 2011, published 2014).
